Data set [1] relates to rSCNN1A (r ENaCα) mRNA. The data set is described as follows: Screening of ENaCα siNAs in Rat H-4-II-E cells (quantitative RT-PCR). The data set is classed as cell-based. Set-up: Percent Reduction of the r ENaCα mRNA relative to a non-targeting control siNA (NTCs) / Rat % KD (efficacy of ENaCα mRNA knockdown): concentration or dose not given beside the values. Conditions: Rat H-4-II-E cells, n = 3; for Mean (rSCNN1A expression normalized to the level of rGAPDH) / Percent Reduction of the r ENaCα mRNA relative to a non-targeting control siNA (NTCs) / Avg GAPDH Expression (rGAPDH): 24 hours post-transfection; for Avg ENaCα Expression (rSCNN1A): harvested 24 hours post-transfection; for Avg GAPDH Expression (rGAPDH): housekeeping gene used for normalisation. The procedure, abridged: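 Knockdown read-out: qRT-PCR quantified against a standard curve of same-cell-line RNA, ENaCα normalized to species housekeeping gene (GAPDH or 36B4) and expressed versus non-targeting control. Cells received lipid-complexed siNA, 25 nM final, in triplicate and were assayed at 24 h; IC50 by variable-slope sigmoidal fit.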

The subject of data set [2] is ENaCα mRNA. The data set is described as follows: Screening of ENaCα siNAs in human A549 cells (quantitative RT-PCR). The data set is classed as cell-based. More on the design: Percent Reduction of the ENaCα mRNA relative to a non-targeting control siNA (NTC): concentration or dose not given beside the values. As to conditions: human A549 cells, n = 3; for Avg ENaCα Expression: 25 nM siNA with Lipofectamine 2000, harvested 24 hours post-transfection; for Mean (level of ENaCα expression normalized to the level of GAPDH) / Percent Reduction of the ENaCα mRNA relative to a non-targeting control siNA (NTC) / Avg GAPDH Expression: 24 hours post-transfection; for Avg GAPDH Expression: housekeeping gene used for normalisation. The gist of the method: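 ENaCα knockdown in human A549 cells is measured by qRT-PCR (standard-curve quantitation), normalized to a non-targeting siNA control. Lipofectamine 2000 complexes deliver 25 nM siNA per well (lipid 2.33 μg/ml, held constant in dose-response); IC50 from a sigmoidal variable-slope fit.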

[invAb] = inverted abasic unit; m = 2'-O-methyl; r = 2'-OH (RNA); f = 2'-fluoro

“B GuccAAccuGGGcAGccAG TTB / CUGGcuGcccAGGuuGGAcUU (sense GUCCAACCUGGGCAGCCAGTT; antisense CUGGCUGCCCAGGUUGGACUU; siRNA; sense: DNA at AGT, 2'-fluoro at CU, [invAb] at 5' end, 3' end, backbone not given here; antisense: sugars from the 5' end rmmmffmfffmmmffmmmfmm, backbone not given here) [Site 1743]”: in data set [1], the “Mean (rSCNN1A expression normalized to the level of rGAPDH)” value is reported as 0.52, the “Percent Reduction of the r ENaCα mRNA relative to a non-targeting control siNA (NTCs)” value is reported as 43.9%, the “Avg ENaCα Expression (rSCNN1A)” value is 22.13 and the “Avg GAPDH Expression (rGAPDH)” value was found to be 42.82. Further, in data set [2], the “Avg ENaCα Expression” value turned out to be 68.82, the “Mean (level of ENaCα expression normalized to the level of GAPDH)” value is 0.57, the “Percent Reduction of the ENaCα mRNA relative to a non-targeting control siNA (NTC)” value was found to be 13.9% and the “Avg GAPDH Expression” value was found to be 121.24.
Regarding “B cAGAGcAGAAuGAcuucAu TTB / AUGAAGucAuucuGcucuGUU (sense CAGAGCAGAAUGACUUCAUTT; antisense AUGAAGUCAUUCUGCUCUGUU; siRNA; sense: DNA at AGT, 2'-fluoro at CU, [invAb] at 5' end, 3' end, backbone not given here; antisense: sugars from the 5' end rrrmmmffmffffmffffmmm, backbone not given here) [Site 1100]”, in data set [1], the “Mean (rSCNN1A expression normalized to the level of rGAPDH)” value stood at 0.83, the “Percent Reduction of the r ENaCα mRNA relative to a non-targeting control siNA (NTCs)” value was 35.4%, the “Avg ENaCα Expression (rSCNN1A)” value was 21.68 and the “Avg GAPDH Expression (rGAPDH)” value came to 26.15. In data set [2], the “Avg ENaCα Expression” value amounted to 66.11, the “Mean (level of ENaCα expression normalized to the level of GAPDH)” value was found to be 1.14, the “Percent Reduction of the ENaCα mRNA relative to a non-targeting control siNA (NTC)” value is given as 26.8% and the “Avg GAPDH Expression” value was 64.16.
Take “B cAcAAccGcAuGAAGAcGG TTB / CCGucuucAuGcGGuuGuGUU (chain 1 CACAACCGCAUGAAGACGGTT; chain 2 CCGUCUUCAUGCGGUUGUGUU; siRNA; chain 1: DNA at AGT, 2'-fluoro at CU, [invAb] at 5' end, 3' end, backbone not given here; chain 2: sugars from the 5' end rrrfffffmfmfmmffmfmmm, backbone not given here) [Site 334]”: in data set [1], the “Mean (rSCNN1A expression normalized to the level of rGAPDH)” value is listed as 0.85, the “Percent Reduction of the r ENaCα mRNA relative to a non-targeting control siNA (NTCs)” value turned out to be 33.7%, the “Avg ENaCα Expression (rSCNN1A)” value is 16.10 and the “Avg GAPDH Expression (rGAPDH)” value worked out at 19.11. In data set [2], the “Avg ENaCα Expression” value turned out to be 58.30, the “Mean (level of ENaCα expression normalized to the level of GAPDH)” value worked out at 1.49, the “Percent Reduction of the ENaCα mRNA relative to a non-targeting control siNA (NTC)” value is reported as 4.5% and the “Avg GAPDH Expression” value was 42.86.
“B cAcuccuGcuuccAGGAGA TTB / UCUccuGGAAGcAGGAGuGUU (sense CACUCCUGCUUCCAGGAGATT; antisense UCUCCUGGAAGCAGGAGUGUU; siRNA; sense: DNA at AGT, 2'-fluoro at CU, [invAb] at 5' end, 3' end, backbone not given here; antisense: sugars from the 5' end rrrfffmmmmmfmmmmmfmmm, backbone not given here) [Site 1351]”: in data set [1], the “Mean (rSCNN1A expression normalized to the level of rGAPDH)” value is listed as 0.72, the “Percent Reduction of the r ENaCα mRNA relative to a non-targeting control siNA (NTCs)” value is on record as 43.7%, the “Avg ENaCα Expression (rSCNN1A)” value is 18.06 and the “Avg GAPDH Expression (rGAPDH)” value is 24.87. In data set [2], the “Avg ENaCα Expression” value was found to be 68.14, the “Mean (level of ENaCα expression normalized to the level of GAPDH)” value is listed as 1.12, the “Percent Reduction of the ENaCα mRNA relative to a non-targeting control siNA (NTC)” value is listed as 28.2% and the “Avg GAPDH Expression” value came to 64.22.
Regarding “B cGcAuGAAGAcGGccuucu TTB / AGAAGGccGucuucAuGcGUU (chain 1 CGCAUGAAGACGGCCUUCUTT; chain 2 AGAAGGCCGUCUUCAUGCGUU; siRNA; chain 1: DNA at AGT, 2'-fluoro at CU, [invAb] at 5' end, 3' end, backbone not given here; chain 2: sugars from the 5' end rrrmmmffmfffffmfmfmmm, backbone not given here) [Site 340]”, in data set [1], the “Mean (rSCNN1A expression normalized to the level of rGAPDH)” value is on record as 1.07, the “Percent Reduction of the r ENaCα mRNA relative to a non-targeting control siNA (NTCs)” value is given as 16.7%, the “Avg ENaCα Expression (rSCNN1A)” value was found to be 22.68 and the “Avg GAPDH Expression (rGAPDH)” value is 21.20. For the same substance, in data set [2], the “Avg ENaCα Expression” value came out at 84.94, the “Mean (level of ENaCα expression normalized to the level of GAPDH)” value is recorded as 1.40, the “Percent Reduction of the ENaCα mRNA relative to a non-targeting control siNA (NTC)” value is on record as 9.9% and the “Avg GAPDH Expression” value is on record as 63.09.
Take “B ccAuccGccuGGuGuGcuc TTB / GAGcAcAccAGGcGGAuGGUU (chain 1 CCAUCCGCCUGGUGUGCUCTT; chain 2 GAGCACACCAGGCGGAUGGUU; siRNA; chain 1: DNA at AGT, 2'-fluoro at CU, [invAb] at 5' end, 3' end, backbone not given here; chain 2: sugars from the 5' end rrrfmfmffmmmfmmmfmmmm, backbone not given here) [Site 311]”: in data set [1], the “Mean (rSCNN1A expression normalized to the level of rGAPDH)” value came out at 0.83, the “Percent Reduction of the r ENaCα mRNA relative to a non-targeting control siNA (NTCs)” value is 35.2%, the “Avg ENaCα Expression (rSCNN1A)” value is on record as 16.42 and the “Avg GAPDH Expression (rGAPDH)” value is 19.71. Besides, in data set [2], the “Avg ENaCα Expression” value was 65.43, the “Mean (level of ENaCα expression normalized to the level of GAPDH)” value was found to be 1.29, the “Percent Reduction of the ENaCα mRNA relative to a non-targeting control siNA (NTC)” value is on record as 17.0% and the “Avg GAPDH Expression” value was determined as 53.29.
As to “B ccGcAuGAAGAcGGccuuc TTB / GAAGGccGucuucAuGcGGUU (chain 1 CCGCAUGAAGACGGCCUUCTT; chain 2 GAAGGCCGUCUUCAUGCGGUU; siRNA; chain 1: DNA at AGT, 2'-fluoro at CU, [invAb] at 5' end, 3' end, backbone not given here; chain 2: sugars from the 5' end rrrmmffmfffffmfmfmmmm, backbone not given here) [Site 339]”, in data set [1], the “Mean (rSCNN1A expression normalized to the level of rGAPDH)” value was 0.79, the “Percent Reduction of the r ENaCα mRNA relative to a non-targeting control siNA (NTCs)” value turned out to be 38.3%, the “Avg ENaCα Expression (rSCNN1A)” value was determined as 15.81 and the “Avg GAPDH Expression (rGAPDH)” value came out at 19.92. Moreover, in data set [2], the “Avg ENaCα Expression” value was determined as 69.05, the “Mean (level of ENaCα expression normalized to the level of GAPDH)” value came to 1.13, the “Percent Reduction of the ENaCα mRNA relative to a non-targeting control siNA (NTC)” value is 27.1% and the “Avg GAPDH Expression” value is 62.02.
Regarding “B cccuGcuGuccAcAGuGAc TTB / GUCAcuGuGGAcAGcAGGGUU (sense CCCUGCUGUCCACAGUGACTT; antisense GUCACUGUGGACAGCAGGGUU; siRNA; sense: DNA at AGT, 2'-fluoro at CU, [invAb] at 5' end, 3' end, backbone not given here; antisense: sugars from the 5' end rrrmffmfmmmfmmfmmmmmm, backbone not given here) [Site 1121]”, in data set [1], the “Mean (rSCNN1A expression normalized to the level of rGAPDH)” value is reported as 0.84, the “Percent Reduction of the r ENaCα mRNA relative to a non-targeting control siNA (NTCs)” value worked out at 34.6%, the “Avg ENaCα Expression (rSCNN1A)” value turned out to be 19.44 and the “Avg GAPDH Expression (rGAPDH)” value was 23.01. Moreover, in data set [2], the “Avg ENaCα Expression” value is on record as 72.95, the “Mean (level of ENaCα expression normalized to the level of GAPDH)” value stood at 1.65, the “Percent Reduction of the ENaCα mRNA relative to a non-targeting control siNA (NTC)” value is −6.0% and the “Avg GAPDH Expression” value is listed as 46.89.
For the substance “B cuGuGcAAccAGAAcAAAu TTB / AUUuGuucuGGuuGcAcAGUU (chain 1 CUGUGCAACCAGAACAAAUTT; chain 2 AUUUGUUCUGGUUGCACAGUU; siRNA; chain 1: DNA at AGT, 2'-fluoro at CU, [invAb] at 5' end, 3' end, backbone not given here; chain 2: sugars from the 5' end rrrfmffffmmffmfmfmmmm, backbone not given here) [Site 781]”, in data set [1], the “Mean (rSCNN1A expression normalized to the level of rGAPDH)” value is reported as 0.86, the “Percent Reduction of the r ENaCα mRNA relative to a non-targeting control siNA (NTCs)” value came to 32.8%, the “Avg ENaCα Expression (rSCNN1A)” value turned out to be 23.09 and the “Avg GAPDH Expression (rGAPDH)” value worked out at 26.57. Further, in data set [2], the “Avg ENaCα Expression” value is on record as 61.44, the “Mean (level of ENaCα expression normalized to the level of GAPDH)” value is listed as 0.97, the “Percent Reduction of the ENaCα mRNA relative to a non-targeting control siNA (NTC)” value amounted to 37.7% and the “Avg GAPDH Expression” value was 66.47.

These data come from patent US20110288154A1, “RNA Interference Mediated Inhibition of Epithelial Sodium Channel (ENaC) Gene Expression Using Short Interfering Nucleic Acid (siNA)” (MERCK & CO., INC., priority 2008, published 2011).
